# Measured values published in patent publication US6737383B1, “Herbicidal oxadiazolidines” (priority 1999, dated 2004).
# Key:
# [1] = test system: giant foxtail; assay: Test B pre/postemergence giant foxtail; type: in vivo, Setaria faberii
# Procedure, shortened: (§1)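 Response is a visual 0-to-10 score relative to untreated plants, where 0 means no effect and 10 means complete control, taken twelve to sixteen days after application. Treatments went onto soil at planting and onto foliage of 1- to 4-leaf plants, using a surfactant-containing non-phytotoxic solvent.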
# [2] = test system: pigweed; assay: Test B pre/postemergence pigweed; type: in vivo, Amaranthus retroflexus
# Procedure, shortened: as §1
# [3] = test system: morningglory; assay: Test B pre/postemergence morningglory; type: in vivo, Ipomoea hederacea
# Procedure, shortened: as §1
# [4] = test system: crabgrass; assay: Test B pre/postemergence crabgrass; type: in vivo, Digitaria sanguinalis
# Procedure, shortened: as §1
# [5] = test system: sugar beet; assay: Test B pre/postemergence sugar beet; type: in vivo, Beta vulgaris
# Procedure, shortened: as §1
# [6] = test system: corn; assay: Test B pre/postemergence corn; type: in vivo, Zea mays
# Procedure, shortened: as §1
# [7] = test system: rape; assay: Test B pre/postemergence rape; type: in vivo, Brassica napus
# Procedure, shortened: as §1
# [8] = test system: wheat; assay: Test B pre/postemergence wheat; type: in vivo, Triticum aestivum
# Procedure, shortened: as §1
# [9] = test system: purple nutsedge; assay: Test B pre/postemergence purple nutsedge; type: in vivo, Cyperus rotundus
# Procedure, shortened: as §1
# [10] = test system: soybean; assay: Test B pre/postemergence soybean; type: in vivo, Glycine max
# Procedure, shortened: as §1
# [11] = test system: velvetleaf; assay: Test B pre/postemergence velvetleaf; type: in vivo, Abutilon theophrasti
# Procedure, shortened: as §1
# [12] = test system: smallflower flatsedge; assay: Test B flood test smallflower flatsedge; type: in vivo, Cyperus difformis
# Procedure, shortened: (§2)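 Flood test on plants grown to the 2-leaf stage; treated plants kept in greenhouse twelve to sixteen days, then visually rated against controls on a 0 (no effect) to 10 (complete control) scale.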
# [13] = test system: duck salad; assay: Test B flood test duck salad; type: in vivo, Heteranthera limosa
# Procedure, shortened: as §2
# [14] = test system: cocklebur; assay: Test B pre/postemergence cocklebur; type: in vivo, Xanthium strumarium
# Procedure, shortened: as §1
# [15] = test system: rice; assay: Test B flood test rice; type: in vivo, Oryza sativa
# Procedure, shortened: as §2
# [16] = test system: wild oat; assay: Test B pre/postemergence wild oat; type: in vivo, Avena fatua
# Procedure, shortened: as §1
# [17] = Postemergence, Rate 125 g/ha, scale of 0 to 10 where 0 is no effect and 10 is complete control
# [18] = Postemergence, Rate 250 g/ha, scale of 0 to 10, 0 is no effect, 10 is complete control
# [19] = Postemergence, Rate 500 g/ha, scale of 0 to 10 where 0 is no effect and 10 is complete control
# [20] = Postemergence, Rate 1000 g/ha, scale 0 to 10 (0 no effect, 10 complete control)
# [21] = Preemergence, Rate 125 g/ha, scale of 0 to 10 where 0 is no effect and 10 is complete control
# [22] = Preemergence, Rate 500 g/ha, scale of 0 to 10 where 0 is no effect and 10 is complete control
# [23] = Rate 1000 g/ha, Preemergence, scale 0 to 10 (0 no effect, 10 complete control)
# [24] = Pre-emergence, Rate 1000 g/ha, scale 0 to 10 (0 no effect, 10 complete control)
# [25] = Rate 125 g/ha, under heading Pre-emergence, flood test species, visual evaluation after twelve to sixteen days
# [26] = Rate 250 g/ha, Pre-emergence (flood test species), scale 0 to 10, 0 is no effect, 10 is complete control
# [27] = Rate 500 g/ha, Pre-emergence section of Table B, 0 to 10 scale (0 no effect, 10 complete control)
smiles,measurement,setting,value
CCOP(=O)(Cn1c(=O)on(C(=O)N(c2ccc(F)cc2)C(C)C)c1=O)OCC [Compound 587],"Plant response rating, Giant foxtail",[1]; [17],0
same,Giant foxtail plant response rating,[1]; [18],0
same,"Plant response rating, Giant foxtail",[1]; [19],2
same,Giant foxtail plant response rating,[1]; [20],4
same,Giant foxtail plant response rating,[1]; [21],8
same,Giant foxtail plant response rating,[1]; [22],9
same,"Plant response rating, Giant foxtail",[1]; [23],10
same,"Plant response rating, Redroot pigweed",[2]; [17],0
same,Redroot pigweed plant response rating,[2]; [18],0
same,"Plant response rating, Redroot pigweed",[2]; [19],0
same,Redroot pigweed plant response rating,[2]; [20],0
same,Redroot pigweed plant response rating,[2]; [21],0
same,Redroot pigweed plant response rating,[2]; [22],2
same,"Plant response rating, Redroot pigweed",[2]; [23],3
same,"Plant response rating, Morningglory",[3]; [17],4
same,Morningglory plant response rating,[3]; [18],6
same,"Plant response rating, Morningglory",[3]; [19],7
same,Morningglory plant response rating,[3]; [20],9
same,Morningglory plant response rating,[3]; [21],0
same,Morningglory plant response rating,[3]; [22],0
same,"Plant response rating, Morningglory",[3]; [23],3
same,"Plant response rating, Crabgrass",[4]; [17],0
same,"Plant response rating, Crabgrass",[4]; [19],2
same,Crabgrass plant response rating,[4]; [20],3
same,Crabgrass plant response rating,[4]; [21],6
same,Crabgrass plant response rating,[4]; [22],9
same,"Plant response rating, Crabgrass",[4]; [23],10
same,"Plant response rating, Sugarbeets",[5]; [17],0
same,Sugarbeets plant response rating,[5]; [18],0
same,"Plant response rating, Sugarbeets",[5]; [19],0
same,Sugarbeets plant response rating,[5]; [20],0
same,Sugarbeets plant response rating,[5]; [21],0
same,Sugarbeets plant response rating,[5]; [22],0
same,"Plant response rating, Sugarbeets",[5]; [23],3
same,"Plant response rating, Corn",[6]; [17],0
same,Corn plant response rating,[6]; [18],0
same,"Plant response rating, Corn",[6]; [19],0
same,Corn plant response rating,[6]; [20],0
same,Corn plant response rating,[6]; [21],0
same,Corn plant response rating (0 to 10 scale),"[6]; Preemergence, Rate 250 g/ha",0
same,Corn plant response rating,[6]; [22],0
same,"Plant response rating, Corn",[6]; [23],4
same,"Plant response rating, Rape",[7]; [17],0
same,Rape plant response rating,[7]; [18],0
same,"Plant response rating, Rape",[7]; [19],0
same,Rape plant response rating,[7]; [20],0
same,Rape plant response rating,[7]; [21],0
same,Rape plant response rating,[7]; [22],1
same,"Plant response rating, Rape",[7]; [23],2
same,"Plant response rating, Wheat",[8]; [17],0
same,Wheat plant response rating,[8]; [18],0
same,"Plant response rating, Wheat",[8]; [19],0
same,Wheat plant response rating,[8]; [20],3
same,Wheat plant response rating,[8]; [21],0
same,Wheat plant response rating,[8]; [22],3
same,"Plant response rating, Wheat",[8]; [23],7
same,"Plant response rating, Nutsedge",[9]; [17],0
same,Nutsedge plant response rating,[9]; [18],0
same,"Plant response rating, Nutsedge",[9]; [19],0
same,Nutsedge plant response rating,[9]; [20],0
same,Nutsedge plant response rating,[9]; [21],0
same,Nutsedge plant response rating,[9]; [22],0
same,"Plant response rating, Nutsedge",[9]; [23],0
same,"Plant response rating, Soybean",[10]; [17],4
same,Soybean plant response rating,[10]; [18],6
same,"Plant response rating, Soybean",[10]; [19],6
same,Soybean plant response rating,[10]; [20],6
same,Soybean plant response rating,[10]; [21],0
same,Soybean plant response rating,[10]; [22],2
same,"Plant response rating, Soybean",[10]; [23],2
same,"Plant response rating, Velvetleaf",[11]; [17],0
same,Velvetleaf plant response rating,[11]; [18],0
same,"Plant response rating, Velvetleaf",[11]; [19],0
same,Velvetleaf plant response rating,[11]; [20],2
same,Velvetleaf plant response rating,[11]; [21],0
same,Velvetleaf plant response rating,[11]; [22],2
same,"Plant response rating, Velvetleaf",[11]; [23],4
same,S. Flatsedge plant response rating,[12]; [24],0
same,"S. Flatsedge plant response rating (0 to 10 scale, 0 is no effect, 10 is complete control)",[12]; [25],0
same,S. Flatsedge plant response rating,[12]; [26],0
same,S. Flatsedge plant response rating,[12]; [27],0
same,Ducksalad plant response rating,[13]; [24],0
same,"Ducksalad plant response rating (0 to 10 scale, 0 is no effect, 10 is complete control)",[13]; [25],0
same,Ducksalad plant response rating,[13]; [26],0
same,Ducksalad plant response rating,[13]; [27],0
same,"Plant response rating, Cocklebur",[14]; [17],0
same,Cocklebur plant response rating,[14]; [18],0
same,"Plant response rating, Cocklebur",[14]; [19],0
same,Cocklebur plant response rating,[14]; [20],0
same,Cocklebur plant response rating,[14]; [21],0
same,Cocklebur plant response rating (0 to 10 scale),"[14]; Preemergence, Rate 250 g/ha",0
same,Cocklebur plant response rating,[14]; [22],0
same,"Plant response rating, Cocklebur",[14]; [23],0
same,Rice plant response rating,[15]; [24],0
same,"Rice plant response rating (0 to 10 scale, 0 is no effect, 10 is complete control)",[15]; [25],0
same,Rice plant response rating,[15]; [26],0
same,Rice plant response rating,[15]; [27],0
same,"Plant response rating, Wild oats",[16]; [17],0
same,Wild oats plant response rating,[16]; [18],0
same,"Plant response rating, Wild oats",[16]; [19],0
same,Wild oats plant response rating,[16]; [20],0
same,Wild oats plant response rating,[16]; [21],2
same,Wild oats plant response rating,[16]; [22],9
same,"Plant response rating, Wild oats",[16]; [23],10
